Assay results: article PMC4224963 (ChemMedChem, 2014)
One block for each compound: values may come before it.

Tests used:
human NAAA [1] = target: T1, human NAAA (Homo sapiens, UniProt Q02083); test: Fluorogenic h-NAAA assay; format: biochemical
T1 sequence (Q02083 126-359 limits assumed): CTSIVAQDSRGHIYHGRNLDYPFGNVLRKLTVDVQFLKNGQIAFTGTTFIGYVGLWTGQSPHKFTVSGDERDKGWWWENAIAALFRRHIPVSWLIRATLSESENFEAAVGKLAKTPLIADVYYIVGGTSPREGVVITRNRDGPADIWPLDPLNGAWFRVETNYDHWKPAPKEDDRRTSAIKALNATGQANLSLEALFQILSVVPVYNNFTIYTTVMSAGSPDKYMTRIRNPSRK
T1 sequence (Q02083 29-125 limits assumed): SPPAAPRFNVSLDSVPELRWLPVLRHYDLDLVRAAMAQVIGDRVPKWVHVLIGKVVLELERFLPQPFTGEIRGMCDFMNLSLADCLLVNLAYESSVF

[2] = In vitro mouse plasma stability; format: in vitro ADME
[3] = In vitro rat plasma stability; format: in vitro ADME
human NAAA [4] = target: T2, human NAAA (Homo sapiens, UniProt Q02083); test: h-NAAA inhibition, UPLC-MS-based assay; format: biochemical; settings: for IC50: h–NAAA IC50 (μM) ± SD, LC/MS method, mean of three or more determinations
T2 sequence (Q02083 29-359): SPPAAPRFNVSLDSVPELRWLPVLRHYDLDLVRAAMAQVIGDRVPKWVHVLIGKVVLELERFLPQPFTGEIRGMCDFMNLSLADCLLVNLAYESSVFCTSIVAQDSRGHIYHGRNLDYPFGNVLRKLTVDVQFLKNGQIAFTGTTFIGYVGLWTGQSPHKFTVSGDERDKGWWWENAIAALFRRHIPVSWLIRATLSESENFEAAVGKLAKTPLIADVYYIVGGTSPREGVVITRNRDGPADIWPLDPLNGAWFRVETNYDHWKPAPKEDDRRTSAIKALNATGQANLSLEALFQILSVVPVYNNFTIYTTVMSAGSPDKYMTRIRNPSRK

human FAAH = target: T3, human FAAH (Homo sapiens, UniProt O00519); test: h-FAAH inhibition; format: biochemical; settings: read-out: h–FAAH (% Inhib)
T3 sequence (O00519 1-579): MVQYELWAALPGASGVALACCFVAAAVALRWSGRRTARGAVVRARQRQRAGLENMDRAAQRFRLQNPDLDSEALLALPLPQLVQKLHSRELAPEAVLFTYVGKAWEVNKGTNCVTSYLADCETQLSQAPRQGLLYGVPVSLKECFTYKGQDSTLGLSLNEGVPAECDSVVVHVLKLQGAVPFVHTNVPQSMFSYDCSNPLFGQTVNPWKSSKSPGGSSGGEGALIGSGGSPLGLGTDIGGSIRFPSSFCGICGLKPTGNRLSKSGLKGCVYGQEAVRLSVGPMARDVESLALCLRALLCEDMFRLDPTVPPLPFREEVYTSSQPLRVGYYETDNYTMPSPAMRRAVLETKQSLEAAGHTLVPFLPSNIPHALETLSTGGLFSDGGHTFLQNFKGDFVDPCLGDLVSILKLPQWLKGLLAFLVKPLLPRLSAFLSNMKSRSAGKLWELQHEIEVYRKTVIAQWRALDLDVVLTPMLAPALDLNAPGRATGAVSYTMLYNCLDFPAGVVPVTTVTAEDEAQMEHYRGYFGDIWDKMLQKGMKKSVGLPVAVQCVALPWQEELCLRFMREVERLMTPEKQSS

human AC = target: T4, human AC (Homo sapiens, UniProt Q13510); test: h-AC inhibition, UPLC-MS-based assay; format: biochemical; settings: for IC50: h–AC IC50 (μM) ± SD, LC/MS method, mean of three or more determinations
T4 sequence (Q13510 22-395): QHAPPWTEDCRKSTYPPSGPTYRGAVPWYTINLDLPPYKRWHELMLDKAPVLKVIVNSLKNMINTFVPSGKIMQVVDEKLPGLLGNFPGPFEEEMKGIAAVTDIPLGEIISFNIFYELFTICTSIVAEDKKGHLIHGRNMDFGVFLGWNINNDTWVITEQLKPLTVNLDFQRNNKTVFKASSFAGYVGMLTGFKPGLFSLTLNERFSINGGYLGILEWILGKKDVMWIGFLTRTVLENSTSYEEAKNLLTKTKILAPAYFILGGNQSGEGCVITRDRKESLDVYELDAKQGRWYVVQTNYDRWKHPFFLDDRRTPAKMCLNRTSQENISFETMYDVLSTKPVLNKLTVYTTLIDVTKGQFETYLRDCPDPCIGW

rat-NAAA (r-NAAA) = settings: read-out: r-NAAA IC50; ref 19a, 19c, 19d, 19f; cited from earlier work
[5] = Plasma pharmacokinetics in rats after IV or oral dosing; format: in vivo; settings: rat

Structure (SMILES): O=C(CCCc1ccccc1)N[C@H]1CNC1=O [Compound 11b, N–[(S)–2-Oxoazetidin–3–yl]–4–phenyl–butanamide]
- IC50 (human NAAA [1]): 73.4 ± 10.7 µM

Structure (SMILES): CCCCc1ccc(C(=O)N[C@H]2CNC2=O)cc1 [Compound 11k, 4–Butyl–N–[(S)–2–oxoazetidin–3–yl]–benzamide]
- IC50 (human NAAA [1]): 13.8 ± 3.41 µM

Structure (SMILES): CCCCCCC(=O)N[C@H]1CNC1=O [Compound 11f, N–[(S)–2–Oxoazetidin–3–yl]–heptanamide]
- IC50 (human NAAA [1]): 27 ± 6.15 µM
- drop in potency (h-NAAA) compared to 11e (human NAAA [1]; fluorogenic assay): > 40 fold

Structure (SMILES): O=C(CCc1ccccc1)N[C@H]1CNC1=O [Compound 11a, 3–Phenyl–N–[(S)–2-oxoazetidin–3–yl]–propanamide]
- half-life at 2 µM [2]: > 2 h
- half-life at […] [3]: > 2 h

Structure (SMILES): CCCCCCCCCCC(=O)N[C@H]1CNC1=O [Compound 11p, N–[(S)–2–Oxoazetidin–3–yl]–undecanamide]
- increase in potency toward h–NAAA compared to 11h (human NAAA [4]; LC/MS assay): ca. 2 fold
- IC50 (human NAAA [4]): 0.056 ± 0.01 µM
- inhibition at 100 µM (human FAAH): < 10%
- increase in potency toward h–AC compared to 11h (human AC; LC/MS assay): ca. 7 fold
- IC50 (human AC): 0.33 ± 0.1 µM

Structure (SMILES): O=C(CCCCCc1ccccc1)N[C@H]1CNC1=O [Compound 11d, N–[(S)–2–Oxoazetidin–3–yl]–6–phenyl–hexanamide]
- IC50 (human NAAA [1]): 12.1 ± 2.18 µM

Structure (SMILES): O=C(CCCCc1ccccc1)N[C@H]1CNC1=O [Compound 11c, 5–Phenyl–N–[(S)–2–oxoazetidin–3–yl]–pentanamide]
- IC50 (human NAAA [1]): 27.2 ± 1.89 µM

Structure (SMILES): CCCCCCCCC(=O)N[C@@H]1CNC1=O [Compound 12h, N–[(R)–2–Oxoazetidin–3–yl]–nonanamide]
- IC50 (human NAAA [4]): 45.5 µM
- IC50 (human NAAA [1]): 74.5 ± 9.08 µM
- loss/drop in potency (h-NAAA) compared to 11h (human NAAA [1]; fluorogenic assay): > 200 fold
- inhibition at 100 µM (human FAAH): < 10%
- IC50 (human AC): 27.8 µM

Structure (SMILES): CCCCCCCCC(=O)N[C@H]1CNC1=O [Compound 11h, N–[(S)–2–Oxoazetidin–3–yl]–nonanamide]
- IC50 (human NAAA [4]): 0.13 ± 0.03 µM
- half-life at 2 µM [2]: 1.72 h
- AUC ([5]; iv, 3 mg/kg): 0.111 µg·h/mL
- Cmax ([5]; iv, 3 mg/kg): 0.397 µg/mL
- Tmax ([5]; iv, 3 mg/kg): 4.8 min
- clearance ([5]; iv, 3 mg/kg): 42.1 L/h/kg
- AUC ([5]; po, 10 mg/kg): 0.247 µg·h/mL
- Cmax ([5]; po, 10 mg/kg): 0.57 µg/mL
- inhibition at 100 µM (human FAAH): < 10%
- selectivity for NAAA vs. AC (human AC; h-AC IC50 / h-NAAA IC50, LC/MS assays): ca. 19 fold
- IC50 (human AC): 2.53 ± 0.06 µM
- half-life at […] [3]: > 2 h

Continued, in another order:

- IC50 (human NAAA [1]): 0.6 ± 0.17 µM
Structure (SMILES): O=C(CCCCCCc1ccccc1)N[C@H]1CNC1=O [Compound 11e, 7–Phenyl–N–[(S)–2–oxoazetidin–3–yl]–heptanamide]

- IC50 (human NAAA [1]): 5.76 ± 0.9 µM
Structure (SMILES): CCCCCCCNC(=O)N[C@H]1CNC1=O [Compound 33, 1–Heptyl–3–[(S)–2–oxoazetidin–3–yl]–urea]

- IC50 (human NAAA [1]): 3.09 ± 0.5 µM
- loss/drop in potency (h-NAAA) compared to 11h (human NAAA [1]; fluorogenic assay): 10 fold
Structure (SMILES): CCCCC/C=C/CC(=O)N[C@H]1CNC1=O [Compound 11i, (E)–N–[(S)–2–Oxoazetidin–3–yl]–non–3–enamide]

- IC50 (human NAAA [1]): 0.047 ± 0.005 µM
Structure (SMILES): C[C@@H]1OC(=O)[C@@H]1NC(=O)OCCCCCc1ccccc1 [Compound 2, 5–phenylpentyl N–[(2S,3R)–2–methyl–4–oxo–oxetan–3–yl]carbamate, reference compound]
- IC50 (rat-NAAA (r-NAAA)): 0.05 µM

- IC50 (human NAAA [1]): 3.9 ± 0.86 µM
- loss/drop in potency (h-NAAA) compared to 11h (human NAAA [1]; fluorogenic assay): 10 fold
Structure (SMILES): CCCCC/C=C\CC(=O)N[C@H]1CNC1=O [Compound 11j, (Z)–N–[(S)–2–Oxoazetidin–3–yl]–non–3–enamide]

- half-life at 2 µM [2]: < 0.0167 h
- IC50 (human NAAA [1]): 1.29 µM
Structure (SMILES): O=C(CCc1ccccc1)N[C@H]1COC1=O [Compound 1, (S)–N–(2–oxo–3–oxetanyl)–3–phenylpropionamide, reference compound]
- IC50 (rat-NAAA (r-NAAA)): 0.42 µM

- IC50 (human NAAA [1]): 1.91 ± 0.28 µM
Structure (SMILES): CCCCCCCC(=O)N[C@H]1CNC1=O [Compound 11g, N–[(S)–2–Oxoazetidin–3–yl]–octanamide]
